{"source": "paper PMC11585628", "about": "(Nature Communications, 2024)", "origin": "cited, not measured here", "test_system": "SARS-CoV-2", "conditions": "read-out: EC50 for antiviral effects", "note": "pEC50: −log10 of the molar value.", "data": [{"substance": "XR8-24", "values": [{"measurement": "pEC50", "result": 5.92}]}]}
